According to US20250223268A1, “4-Methylsulfonylbenzamide Compound, Preparation Method, Herbicidal Composition And Use” (Jiangsu Flag Chemical Industry Co., Ltd., priority 2022, published 2025):

Assays:
Assay in all cases: Greenhouse herbicidal activity assay, post-emergence
Format in all cases: in vivo
[1] = system: Cyperus iria; details: Post-emergence test, rate 150 g a.i./hm^2, grade by fresh weight inhibition rate; for pest or weed control at 150 g/ha: Cyperus iria, read-out: Control efficacy grade, Cyperus iria
Procedure, shortened: (§1)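 Graded A (≥80%) to E (<20%) by fresh weight inhibition, read 14-21 days after spraying. Plants were pot-grown in a growth chamber and received foliar application at the 3-6 leaf stage, being air-dried and returned to the chamber afterwards.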

[2] = system: Digitaria sanguinalis; details: Post-emergence test, rate 150 g a.i./hm^2, grade by fresh weight inhibition rate; for pest or weed control at 150 g/ha: Digitaria sanguinalis, read-out: Control efficacy grade, Digitaria sanguinalis
Procedure, shortened: as §1

[3] = system: Echinochloa crusgalli; details: Post-emergence test, rate 150 g a.i./hm^2, grade by fresh weight inhibition rate; for pest or weed control at 150 g/ha: Echinochloa crus-galli, read-out: Control efficacy grade, Echinochloa crusgalli
Procedure, shortened: as §1

[4] = system: Eclipta prostrata; details: Post-emergence test, rate 150 g a.i./hm^2, grade by fresh weight inhibition rate; for pest or weed control at 150 g/ha: Eclipta prostrata, read-out: Control efficacy grade, Eclipta prostrata
Procedure, shortened: as §1

[5] = system: Leptochloa chinensis; details: Post-emergence test, rate 150 g a.i./hm^2, grade by fresh weight inhibition rate; for pest or weed control at 150 g/ha: Dinebra chinensis, read-out: Control efficacy grade, Leptochloa chinensis
Procedure, shortened: as §1

Row | SMILES | Control efficacy grade, Cyperus iria [1] | Control efficacy grade, Digitaria sanguinalis [2] | Control efficacy grade, Echinochloa crusgalli [3] | Control efficacy grade, Eclipta prostrata [4] | Control efficacy grade, Leptochloa chinensis [5] | pest or weed control at 150 g/ha [1] [%] | pest or weed control at 150 g/ha [2] [%] | pest or weed control at 150 g/ha [3] [%] | pest or weed control at 150 g/ha [4] [%] | pest or weed control at 150 g/ha [5] [%]
1 | Cn1ncnc1NC(=O)c1ccc(S(C)(=O)=O)c([S+]([O-])C2CCC2)c1Cl (racemic) [Compound 2-38] | A (Fresh weight inhibition rate≥80% to 100%) | A (Fresh weight inhibition rate≥80% to 100%) | A (Fresh weight inhibition rate≥80% to 100%) | A (Fresh weight inhibition rate≥80% to 100%) | A (Fresh weight inhibition rate≥80% to 100%) | – | – | – | – | –
2 | CCCCSc1c(S(C)(=O)=O)ccc(C(=O)Nc2nnnn2C)c1Cl [Compound 1-11] | A (Fresh weight inhibition rate≥80% to 100%) | A (Fresh weight inhibition rate≥80% to 100%) | A (Fresh weight inhibition rate≥80% to 100%) | A (Fresh weight inhibition rate≥80% to 100%) | A (Fresh weight inhibition rate≥80% to 100%) | – | – | – | – | –
3 | CS(=O)(=O)c1ccc(C(=O)Nc2nnco2)c(Cl)c1SC1CCCCC1 [Compound 3-318] | A (Fresh weight inhibition rate≥80% to 100%) | A (Fresh weight inhibition rate≥80% to 100%) | A (Fresh weight inhibition rate≥80% to 100%) | A (Fresh weight inhibition rate≥80% to 100%) | A (Fresh weight inhibition rate≥80% to 100%) | – | – | – | – | –
4 | Cc1nnc(NC(=O)c2ccc(S(C)(=O)=O)c([S+]([O-])C(C)C)c2Cl)o1 (centres unmarked) [Compound 3-7, 2-chloro-3-(isopropylsulfinyl)-N-(5-methyl-1,3,4-oxadiazol-2-yl)-4-(methylsulfonyl)benzamide] | – | – | – | – | – | 80 to 100 | 80 to 100 | 80 to 100 | 80 to 100 | 80 to 100
5 | CC(C)c1nnc(NC(=O)c2ccc(S(C)(=O)=O)c([S+]([O-])C3CC3)c2Cl)o1 (racemic) [Compound 3-536] | A (Fresh weight inhibition rate≥80% to 100%) | B (Fresh weight inhibition rate≥260% to <80%) | A (Fresh weight inhibition rate≥80% to 100%) | A (Fresh weight inhibition rate≥80% to 100%) | A (Fresh weight inhibition rate≥80% to 100%) | – | – | – | – | –
6 | CCC[S+]([O-])c1c(S(C)(=O)=O)ccc(C(=O)Nc2nnc(C3CC3)o2)c1Cl (racemic) [Compound 3-616] | A (Fresh weight inhibition rate≥80% to 100%) | A (Fresh weight inhibition rate≥80% to 100%) | A (Fresh weight inhibition rate≥80% to 100%) | A (Fresh weight inhibition rate≥80% to 100%) | A (Fresh weight inhibition rate≥80% to 100%) | – | – | – | – | –
7 | CCC(C)Sc1c(S(C)(=O)=O)ccc(C(=O)Nc2nnco2)c1Cl (single isomer, unassigned) [Compound 3-283] | A (Fresh weight inhibition rate≥80% to 100%) | A (Fresh weight inhibition rate≥80% to 100%) | A (Fresh weight inhibition rate≥80% to 100%) | A (Fresh weight inhibition rate≥80% to 100%) | A (Fresh weight inhibition rate≥80% to 100%) | – | – | – | – | –
8 | CCCSc1c(S(C)(=O)=O)ccc(C(=O)Nc2ncnn2C)c1Cl [Compound 2-1] | A (Fresh weight inhibition rate≥80% to 100%) | A (Fresh weight inhibition rate≥80% to 100%) | A (Fresh weight inhibition rate≥80% to 100%) | A (Fresh weight inhibition rate≥80% to 100%) | A (Fresh weight inhibition rate≥80% to 100%) | – | – | – | – | –
9 | CCc1nnc(NC(=O)c2ccc(S(C)(=O)=O)c(SC3CCC3)c2Cl)o1 [Compound 3-424] | A (Fresh weight inhibition rate≥80% to 100%) | A (Fresh weight inhibition rate≥80% to 100%) | A (Fresh weight inhibition rate≥80% to 100%) | A (Fresh weight inhibition rate≥80% to 100%) | A (Fresh weight inhibition rate≥80% to 100%) | – | – | – | – | –
10 | Cc1nnc(NC(=O)c2ccc(S(C)(=O)=O)c(SC(C)C)c2Cl)o1 [Compound 3-6, 2-chloro-3-(isopropylthio)-N-(5-methyl-1,3,4-oxadiazol-2-yl)-4-(methylsulfonyl)benzamide] | – | – | – | – | – | 80 to 100 | 80 to 100 | 80 to 100 | 80 to 100 | 80 to 100
11 | Cc1nnc(NC(=O)c2ccc(S(C)(=O)=O)c(SC3CC3)c2Cl)o1 [Compound 3-77] | A (Fresh weight inhibition rate≥80% to 100%) | A (Fresh weight inhibition rate≥80% to 100%) | A (Fresh weight inhibition rate≥80% to 100%) | A (Fresh weight inhibition rate≥80% to 100%) | A (Fresh weight inhibition rate≥80% to 100%) | – | – | – | – | –
12 | Cn1ncnc1NC(=O)c1ccc(S(C)(=O)=O)c([S+]([O-])CC2CC2)c1Cl (single isomer, unassigned) [Compound 2-30] | A (Fresh weight inhibition rate≥80% to 100%) | A (Fresh weight inhibition rate≥80% to 100%) | A (Fresh weight inhibition rate≥80% to 100%) | A (Fresh weight inhibition rate≥80% to 100%) | A (Fresh weight inhibition rate≥80% to 100%) | – | – | – | – | –
13 | CCCCSc1c(S(C)(=O)=O)ccc(C(=O)Nc2nnc(C)o2)c1Cl [Compound 3-11] | A (Fresh weight inhibition rate≥80% to 100%) | A (Fresh weight inhibition rate≥80% to 100%) | B (Fresh weight inhibition rate≥260% to <80%) | A (Fresh weight inhibition rate≥80% to 100%) | A (Fresh weight inhibition rate≥80% to 100%) | – | – | – | – | –
14 | CCCSc1c(S(C)(=O)=O)ccc(C(=O)Nc2nnco2)c1Cl [Compound 3-267, 2-chloro-4-(methylsulfonyl)-N-(1,3,4-oxadiazol-2-yl)-3-(propylthio)benzamide] | – | – | – | – | – | 80 to 100 | 80 to 100 | 80 to 100 | 80 to 100 | 80 to 100
15 | CCC(C)[S+]([O-])c1c(S(C)(=O)=O)ccc(C(=O)Nc2ncnn2C)c1Cl (mixture of isomers) [Compound 2-19] | A (Fresh weight inhibition rate≥80% to 100%) | A (Fresh weight inhibition rate≥80% to 100%) | A (Fresh weight inhibition rate≥80% to 100%) | A (Fresh weight inhibition rate≥80% to 100%) | A (Fresh weight inhibition rate≥80% to 100%) | – | – | – | – | –
16 | Cc1nnc(NC(=O)c2ccc(S(C)(=O)=O)c([S+]([O-])C3CC3)c2Cl)o1 (racemic) [Compound 3-78] | A (Fresh weight inhibition rate≥80% to 100%) | A (Fresh weight inhibition rate≥80% to 100%) | A (Fresh weight inhibition rate≥80% to 100%) | A (Fresh weight inhibition rate≥80% to 100%) | A (Fresh weight inhibition rate≥80% to 100%) | – | – | – | – | –
17 | CCc1nnc(NC(=O)c2ccc(S(C)(=O)=O)c([S+]([O-])CC3CC3)c2Cl)o1 (racemic) [Compound 3-415] | A (Fresh weight inhibition rate≥80% to 100%) | A (Fresh weight inhibition rate≥80% to 100%) | A (Fresh weight inhibition rate≥80% to 100%) | A (Fresh weight inhibition rate≥80% to 100%) | A (Fresh weight inhibition rate≥80% to 100%) | – | – | – | – | –
18 | C=CCS(=O)(=O)c1c(S(C)(=O)=O)ccc(C(=O)Nc2ncnn2C)c1Cl [Compound 2-71] | A (Fresh weight inhibition rate≥80% to 100%) | A (Fresh weight inhibition rate≥80% to 100%) | A (Fresh weight inhibition rate≥80% to 100%) | A (Fresh weight inhibition rate≥80% to 100%) | A (Fresh weight inhibition rate≥80% to 100%) | – | – | – | – | –
19 | CS(=O)(=O)c1ccc(C(=O)Nc2nnco2)c(Cl)c1[S+]([O-])C1CC1 (racemic) [Compound 3-304] | A (Fresh weight inhibition rate≥80% to 100%) | A (Fresh weight inhibition rate≥80% to 100%) | A (Fresh weight inhibition rate≥80% to 100%) | A (Fresh weight inhibition rate≥80% to 100%) | A (Fresh weight inhibition rate≥80% to 100%) | – | – | – | – | –
